Assay results taken from US9975880B2, “Imidazolidine-2,4-dione dervatives” (IPSEN PHARMA S.A.S., priority 2013, dated 2018).
In brackets after ≈: the same amount, converted by molar mass. Like-named read-outs stand apart in the source and are kept apart here.

What was measured:
DU145 cells = experiment: Anti-proliferative activity on DU145 in complete medium; format: cell-based; details: DU145 (no androgen receptor), 144 h, up to 10,000 nM, Cell-Titer-Glow
Method: It is used to evaluate the selectivity of the compounds for androgen receptor expressing cells. No activity of the compounds is expected. • The cells of the DU145 line (ATCC HTB-81) are seeded at 800 cells/well in 90 μl of complete medium in 96-well plates coated with poly-D-lysine (Biocoat, Costar). • Treatment of the cells: 24 h after the seeding, the cells are treated with 10 μl/well of compound diluted in the culture medium. The concentrations used are the following: 1 nM/10/30/100/300/1000/3000/10,000 nM. The cells are incubated for 144 h at 37° C., 5% CO2. • Reading: After incubation for 6 days, cell proliferation was determined by Cell-Titer-Glow (CTG) Luminescent Cell Viability Assay • Results: The experiments are carried out in duplicate and the best compounds are tested twice. A concentration value inhibiting the cell proliferation by 50% (IC50) is calculated.

LNCaP cells = experiment: Anti-proliferative activity on LNCaP in complete medium; format: cell-based; details: Homo sapiens, 144 h
Method: The anti-proliferative activity of the compounds of the present invention is determined on LNCaP in complete medium by applying the following experimental procedure:
The LNCaP cell type (ATCC, 1740) originates from a prostate carcinoma. This line expresses the androgen receptor and is hormone-dependent.
Maintenance of the LNCaP line is carried out in complete culture medium: RPMI, 10% of fetal calf serum, 2 mM glutamine, 100 U/ml penicillin, 0.1 mg/ml of streptomycin and 0.01M HEPES, 1 mM sodium pyruvate, […]. • Seeding the plates:
The LNCaP line is seeded at 20,000 cells/well in 90 μl of complete medium in 96-well plates coated with poly-D-lysine (Biocoat, Costar). • Treatment of the cells: 24 h after the seeding, the cells are treated with 10 μl/well of compound diluted in the culture medium. The concentrations used are the following: 1 nM/10/30/100/300/1000/3000/10,000 nM. The cells are incubated for 144 h at 37° C., 5% CO2. • Reading: After incubation for 6 days, cell proliferation was determined by Cell-Titer-Glow (CTG) Luminescent Cell Viability Assay. • Results: The experiments are carried out in duplicate and the best compounds are tested twice. […] Anti-Proliferative Activity on DU145 in Complete Medium

Evaluation of solubility = format: physicochemical; details: aqueous buffer, kinetic from dmso stock; 100 mM potassium phosphate buffer pH 7.4, 0.1% DMSO, target 100 μM, 1 hour room temperature, LC-MS/MS
Method: Test compounds were prepared as stock solutions at 100 mM in DMSO. The stock solutions were diluted, in duplicate, into 100 mM potassium phosphate buffer (pH 7.4) to a target concentration of 100 μM with a final DMSO concentration of 0.1%. The solutions were shaken at 1000 rpm for 1 hour at room temperature followed by centrifugation for 10 minutes at 1200 rpm to precipitate un-dissolved particles. The supernatants were transferred to new tubes and the samples were further prepared as follows: • Undiluted: 5 μL of supernatant to 95 μL of ACN containing internal standard (IS) • 1:10 diluted: 10 μL of the supernatant into 90 μL K-buffer, mix, then transfer 5 μL of 1:10 diluted samples to 95 μL ACN containing IS • 1:100 diluted: 10 μL of the supernatant into 990 μL K-buffer, mix, then transfer 5 μL of 1:100 diluted samples to 95 μL of ACN containing IS
Samples (undiluted, 1:10 diluted, and 1:100 diluted) along with the standards were analyzed by LC-MS/MS.

[1] = complete medium, 144 h incubation, Cell-Titer-Glow, read-out: IC50 on the LNCaP cells in culture (inhibition of cell proliferation by 50%)
[2] = read-out: IC50 on the LNCaP cells in culture (inhibition of cell proliferation by 50%), LNCaP, complete medium, 144 h incubation, Cell-Titer-Glow

SMILES	IC50 on DU145 cells (anti-proliferative effect) (DU145 cells)	IC50 (LNCaP cells; [1]) [nM]	solubility at 1 h (Evaluation of solubility) [µM]	IC50 (LNCaP cells; [2]) [nM]
CC1(C)C(=O)N(c2ccc(S(C)(=O)=O)c(Cl)c2)C(=O)N1C/C=C\CN1CCC(O)(c2ccc(C#N)c(C(F)(F)F)c2)C1 (stereo not drawn) [Example 16, (Z)-4-(1-(4-(3-(3-chloro-4-(methylsulfonyl)phenyl)-5,5-dimethyl-2,4-dioxoimidazolidin-1-yl)but-2-en-1-yl)-3-hydroxypyrrolidin-3-yl)-2-(trifluoromethyl)benzonitrile]	no measurable IC50	< 1500		
CC1(C)C(=O)N(c2ccc(C#N)c(C(F)(F)F)c2)C(=O)N1C/C=C\Cn1cc(-c2ccc(C#N)c(C(F)(F)F)c2)cn1 [Example 1, (Z)-4-(3-(4-(4-(4-cyano-3-(trifluoromethyl)phenyl)-1H-pyrazol-1-yl)but-2-en-1-yl)-4,4-dimethyl-2,5-dioxoimidazolidin-1-yl)-2-(trifluoromethyl)benzonitrile]	no measurable IC50			
Cc1nn(C/C=C\CN2C(=O)N(c3ccc(C#N)c(C(F)(F)F)c3)C(=O)C2(C)C)c(C)c1-c1ccc(S(C)(=O)=O)c(C(F)(F)F)c1 [Example 6, (Z)-4-(3-(4-(3,5-dimethyl-4-(4-(methylsulfonyl)-3-(trifluoromethyl)phenyl)-1H-pyrazol-1-yl)but-2-en-1-yl)-4,4-dimethyl-2,5-dioxoimidazolidin-1-yl)-2-(trifluoromethyl)benzonitrile]	no measurable IC50		4.38 (≈ 2.92 µg/mL)	
CC1(C)C(=O)N(c2ccc(S(C)(=O)=O)c(C(F)(F)F)c2)C(=O)N1C/C=C\Cn1cc(-c2ccc(C#N)c(C(F)(F)F)c2)cn1 [Example 2, (Z)-4-(1-(4-(5,5-dimethyl-3-(4-(methylsulfonyl)-3-(trifluoromethyl)phenyl)-2,4-dioxoimidazolidin-1-yl)but-2-en-1-yl)-1H-pyrazol-4-yl)-2-(trifluoromethyl)benzonitrile]	no measurable IC50			
CC1(C)C(=O)N(c2ccc(C#N)c(C(F)(F)F)c2)C(=O)N1C/C=C\Cn1cnc(-c2ccc(S(C)(=O)=O)c(C(F)(F)F)c2)c1 [Example 18, (Z)-4-(4,4-dimethyl-3-(4-(4-(4-(methylsulfonyl)-3-(trifluoromethyl)phenyl)-1H-imidazol-1-yl)but-2-en-1-yl)-2,5-dioxoimidazolidin-1-yl)-2-(trifluoromethyl)benzonitrile]		< 1500		
CC1(C)C(=O)N(c2ccc(C#N)c(C(F)(F)F)c2)C(=O)N1C/C=C\Cn1cc(-c2ccccc2)nn1 [Example 19, (Z)-4-(4,4-dimethyl-2,5-dioxo-3-(4-(4-phenyl-1H-1,2,3-triazol-1-yl)but-2-en-1-yl)imidazolidin-1-yl)-2-(trifluoromethyl)benzonitrile]		< 1500		
CC1(C)CN(c2ccc(S(C)(=O)=O)c(C(F)(F)F)c2)C(=O)N1C/C=C\CN1C(=O)N(c2ccc(C#N)c(C(F)(F)F)c2)C(=O)C1(C)C [Example 7, (Z)-4-(3-(4-(5,5-dimethyl-3-(4-(methylsulfonyl)-3-(trifluoromethyl)phenyl)-2-oxoimidazolidin-1-yl)but-2-en-1-yl)-4,4-dimethyl-2,5-dioxoimidazolidin-1-yl)-2-(trifluoromethyl)benzonitrile]	no measurable IC50	< 1500		
CC1(C)CN(c2ccc(S(C)(=O)=O)c(C(F)(F)F)c2)C(=O)N1C/C=C\CN1C(=O)N(c2ccc(S(C)(=O)=O)c(Cl)c2)C(=O)C1(C)C [Example 8, (Z)-3-(3-chloro-4-(methylsulfonyl)phenyl)-1-(4-(5,5-dimethyl-3-(4-(methylsulfonyl)-3-(trifluoromethyl)phenyl)-2-oxoimidazolidin-1-yl)but-2-en-1-yl)-5,5-dimethylimidazolidine-2,4-dione]	no measurable IC50			
CC1(C)C(=O)N(c2ccc(C#N)c(C(F)(F)F)c2)C(=O)N1C/C=C\Cn1cc(-c2ccc(C#N)c(C(F)(F)F)c2)nn1 [Example 22, (Z)-4-(3-(4-(4-(4-cyano-3-(trifluoromethyl)phenyl)-1H-1,2,3-triazol-1-yl)but-2-en-1-yl)-4,4-dimethyl-2,5-dioxoimidazolidin-1-yl)-2-(trifluoromethyl)benzonitrile]		< 1500		
CC1(C)C(=O)N(c2ccc(C#N)c(C(F)(F)F)c2)C(=O)N1C/C=C\CN1CCN(c2ccc(S(C)(=O)=O)c(Cl)c2)C1=O [Example 11, (Z)-4-(3-(4-(3-(3-chloro-4-(methylsulfonyl)phenyl)-2-oxoimidazolidin-1-yl)but-2-en-1-yl)-4,4-dimethyl-2,5-dioxoimidazolidin-1-yl)-2-(trifluoromethyl)benzonitrile]	no measurable IC50		0.34 (≈ 0.212 µg/mL)	< 1500
CC1(C)CN(c2ccc(C#N)c(C(F)(F)F)c2)C(=O)N1C/C=C\CN1C(=O)N(c2ccc(S(C)(=O)=O)c(C(F)(F)F)c2)C(=O)C1(C)C [Example 9, (Z)-4-(3-(4-(5,5-dimethyl-3-(4-(methylsulfonyl)-3-(trifluoromethyl)phenyl)-2,4-dioxoimidazolidin-1-yl)but-2-en-1-yl)-4,4-dimethyl-2-oxoimidazolidin-1-yl)-2-(trifluoromethyl)benzonitrile]	no measurable IC50			< 1500
CC1(C)C(=O)N(c2cnc(C#N)c(C(F)(F)F)c2)C(=O)N1C/C=C\Cn1cc(-c2ccc(S(C)(=O)=O)c(C(F)(F)F)c2)cn1 [Example 4, (Z)-5-(4,4-dimethyl-3-(4-(4-(4-(methylsulfonyl)-3-(trifluoromethyl)phenyl)-1H-pyrazol-1-yl)but-2-en-1-yl)-2,5-dioxoimidazolidin-1-yl)-3-(trifluoromethyl)picolinonitrile]	no measurable IC50		1.7 (≈ 1.09 µg/mL)	
CC1(C)C(=O)N(c2ccc(S(C)(=O)=O)c(C(F)(F)F)c2)C(=O)N1C/C=C\CN1CC(c2ccc(S(C)(=O)=O)c(C(F)(F)F)c2)CC1=O (stereo not drawn) [Example 15, (Z)-5,5-dimethyl-3-(4-(methylsulfonyl)-3-(trifluoromethyl)phenyl)-1-(4-(4-(4-(methylsulfonyl)-3-(trifluoromethyl)phenyl)-2-oxopyrrolidin-1-yl)but-2-en-1-yl)imidazolidine-2,4-dione]	no measurable IC50	< 1500	1.9 (≈ 1.34 µg/mL)	
CC1(C)C(=O)N(c2ccc(C#N)c(C(F)(F)F)c2)C(=O)N1C/C=C\CN1CCN(c2ccc(S(C)(=O)=O)c(Cl)c2)S1(=O)=O [Example 17, (Z)-4-(3-(4-(5-(3-chloro-4-(methylsulfonyl)phenyl)-1,1-dioxido-1,2,5-thiadiazolidin-2-yl)but-2-en-1-yl)-4,4-dimethyl-2,5-dioxoimidazolidin-1-yl)-2-(trifluoromethyl)benzonitrile]	no measurable IC50		1.97 (≈ 1.3 µg/mL)	< 1500
CC1(C)C(=O)N(c2cnc(C#N)c(C(F)(F)F)c2)C(=O)N1C/C=C\Cn1cc(-c2ccc(S(C)(=O)=O)c(Cl)c2)cn1 [Example 5, (Z)-5-(3-(4-(4-(3-chloro-4-(methylsulfonyl)phenyl)-1H-pyrazol-1-yl)but-2-en-1-yl)-4,4-dimethyl-2,5-dioxoimidazolidin-1-yl)-3-(trifluoromethyl)picolinonitrile]	no measurable IC50		0.65 (≈ 0.395 µg/mL)	
